Results published in patent EP0590919A1, “Therapeutic agents for parkinson's disease” (KYOWA HAKKO KOGYO CO., LTD., priority 1992, dated 1994).

How the values were obtained:
dd-strain male mice = assay: Acute toxicity test (minimum lethal dose, oral); type: in vivo; conditions: oral administration, three mice per group, mortality seven days after administration
Experimental: Test compounds were orally administered to groups of dd-strain male mice weighing 20 ± 1 g, each group consisting of three mice. Seven days after the administration, minimum lethal dose (MLD) of each compound was determined by observing the mortality.

A₁ receptor = biological target: T1, A₁ receptor (Cavia porcellus, UniProt P47745); assay: Adenosine A₁ receptor binding test (³H-CHA binding); set-up: species or system guinea pig; conditions: for inhibition at 100 µM: 10⁻⁴M; for inhibition at 100 µM / inhibition at 10 µM: guinea pig cerebrum; for inhibition at 10 µM: 10⁻⁵M; for Ki: Cheng-Prusoff's equation
T1 construct: from tissue; host or cells: guinea pig cerebrum membrane preparation
T1 sequence (P47745 1-326): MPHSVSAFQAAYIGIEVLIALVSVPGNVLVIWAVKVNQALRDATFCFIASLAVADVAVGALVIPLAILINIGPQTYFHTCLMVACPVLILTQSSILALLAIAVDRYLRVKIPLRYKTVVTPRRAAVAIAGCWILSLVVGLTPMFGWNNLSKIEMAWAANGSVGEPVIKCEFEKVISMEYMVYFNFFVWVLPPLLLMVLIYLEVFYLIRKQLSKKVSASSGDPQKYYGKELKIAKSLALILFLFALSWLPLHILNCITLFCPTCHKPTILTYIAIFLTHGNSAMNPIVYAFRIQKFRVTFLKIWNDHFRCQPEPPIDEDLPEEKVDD
Experimental: Cerebrum of a guinea pig was suspended in ice-cooled 50 mM Tris hydroxymethyl aminomethane hydrochloride (Tris HCl) buffer (pH 7.7) by using Polytron homogenizer (manufactured by […] Co.). […] The suspension was centrifuged under the same conditions, and the final precipitate was suspended once again in 50 mM Tris HCl buffer to give a tissue concentration of 100 mg (wet weight)/ml. The tissue suspension was incubated at 37°C for 30 minutes in the presence of 0.02 unit/mg tissue of adenosine deaminase (manufactured by Sigma Co.). The tissue suspension was then centrifuged (50,000 x g, 10 minutes), and 50 mM Tris HCl buffer was added to the precipitate to adjust the concentration of tissue to 10 mg (wet weight)/ml. […] The mixture solution was allowed to stand at 25°C for 90 minutes and then rapidly filtered by suction through a glass fiber filter (GF/C manufactured by Whatman Co.). […] The radioactivity on the filter was determined with a liquid scintillation counter (manufactured by Packard Instrument Co.). […] The inhibition constant (Ki value) shown in the table was calculated by the Cheng-Prusoff's equation.

A₂ receptor = biological target: T2, A₂ receptor (Rattus norvegicus, UniProt P30543); assay: Adenosine A₂ receptor binding test (³H-NECA binding); conditions: for inhibition at 0.1 µM / inhibition at 1 µM / inhibition at 10 µM / inhibition at 100 µM: read-out: Inhibition (%) A₂ Receptor; for Ki: ³H-NECA binding; for Ratio (A₁/A₂): ratio of Ki values A₁/A₂
T2 construct: from tissue; host or cells: rat corpus striatum membrane preparation
T2 sequence (P30543 whole entry): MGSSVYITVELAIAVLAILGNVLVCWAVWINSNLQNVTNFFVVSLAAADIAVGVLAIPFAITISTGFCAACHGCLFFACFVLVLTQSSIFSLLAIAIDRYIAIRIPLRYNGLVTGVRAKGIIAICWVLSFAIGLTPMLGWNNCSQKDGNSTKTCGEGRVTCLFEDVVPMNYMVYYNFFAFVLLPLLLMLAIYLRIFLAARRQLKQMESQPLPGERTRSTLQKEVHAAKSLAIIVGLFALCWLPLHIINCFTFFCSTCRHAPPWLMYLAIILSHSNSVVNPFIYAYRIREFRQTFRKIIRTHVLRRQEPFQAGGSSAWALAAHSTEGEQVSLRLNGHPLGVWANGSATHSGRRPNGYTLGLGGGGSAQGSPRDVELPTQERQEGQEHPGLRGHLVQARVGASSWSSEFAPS
Experimental: The similar procedure as in the above-described adenosine A₁ receptor binding test was repeated using rat corpus striatum to obtain the final precipitate of the tissue thereof. The precipitate was suspended in 50 mM Tris HCl buffer containing 10 mM magnesium chloride and 0.02 unit/mg tissue of adenosine deaminase (manufactured by Sigma Co.) to give a tissue concentration of 5 mg (wet weight)/ml.
The mixture solution was allowed to stand at 25°C for 120 minutes and then treated in the same manner as in the adenosine A₁ receptor binding test to determine the radioactivity bound to the A₂ receptors.
The inhibition rate of the test compound against the binding of A₂ receptor (³H-NECA binding) was calculated by the following equation: [formula] [Notes] • 1.

[1] = test system: Haloperidol-Induced Catalepsy; assay: Effect on haloperidol-induced catalepsy; type: in vivo, mice; conditions: 10 mg/kg orally
Experimental: Haloperidol (Janssen Pharmaceutica) suspended in 0.3% CMC was intraperitoneally administered to each mouse at a dose of 1.0 mg/kg. Test compounds were suspended in 0.3% CMC or in injectable distilled water (Otsuka Pharmaceutical Co., Ltd.) containing Tween 80. L-DOPA (Kyowa Hakko Kogyo Co., Ltd.) and benserazide hydrochloride (Kyowa Hakko Kogyo Co., Ltd.) were suspended in 0.3% CMC. One hour after the haloperidol administration, the test compound suspensions and the control suspension [injectable distilled water (Otsuka Pharmaceutical Co., Ltd.) containing Tween 80] containing no test compound were orally administered to separate groups of the mice (0.1 ml per 10 g of body weight). One hour after the administration of the test compound, the forelimbs of each mouse and subsequently the hindlimbs of the same mouse were placed on a 4.5 cm-high, 1.0 cm-wide bar and catalepsy was estimated. […] The catalepsy score and the standard of judgment are shown below. […] The number of the animals showing remission against catalepsy is the number of the mice for which the catalepsy score was not more than 4 points. […] The ED₅₀ values were calculated by Probit analysis.

| Structure (SMILES) | MLD (dd-strain male mice) [mg/kg] | inhibition at 100 µM (A₁ receptor) [%] | inhibition at 10 µM (A₁ receptor) [%] | inhibition at 0.1 µM (A₂ receptor) [%] | inhibition at 1 µM (A₂ receptor) [%] | inhibition at 10 µM (A₂ receptor) [%] | inhibition at 100 µM (A₂ receptor) [%] | Ki (A₂ receptor) [nM] | Ki (A₁ receptor) [nM] | Ratio (A₁/A₂) (A₂ receptor) | Number of the Animals Showing Remission ([1]; of five mice, catalepsy score not more than 4 points) | Remission Rate (%) ([1]; rate of decrease in total score based on control group) | Total Score ([1]; total catalepsy score of five mice (25 points at the full), haloperidol 1.0 mg/kg i.p.) |
| --- | --- | --- | --- | --- | --- | --- | --- | --- | --- | --- | --- | --- | --- |
| CCn1c(=O)c2[nH]c(/C=C/c3ccc(OC)c(C)c3OC)nc2n(CC)c1=O [Compound 13, (E)-8-(2,4-Dimethoxy-3-methylstyryl)-1,3-diethylxanthine] | > 300 | 71 | 59 | 77 | 84 | 88 | 95 | 9.5 |  |  |  |  |  |
| CCn1c(=O)c2[nH]c(/C=C/c3ccc(OC)c(OC)c3OC)nc2n(CC)c1=O [Compound 7, (E)-1,3-Diethyl-8-(2,3,4-trimethoxystyryl)xanthine] | > 300 | 49 | 34 | 65 | 88 | 75 | 83 | 15 | > 10000 | > 670 |  |  |  |
| CCn1c(=O)c2[nH]c(/C=C/c3ccc4c(c3)OCCO4)nc2n(CC)c1=O [Compound 17, (E)-8-[2-(1,4-Benzodioxan-6-yl)vinyl]-1,3-diethylxanthine] | > 100 | 31 | 23 | 70 | 69 | 80 | 80 | 6.3 | > 100000 | > 16,000 |  |  |  |
| COc1ccc(/C=C/c2nc3c([nH]2)c(=O)n(C)c(=O)n3C)c(OC)c1OC [Compound 19, (E)-8-(2,3,4-Trimethoxystyryl)theophylline] | > 300 | 31 | 10 | 65 | 87 | 92 | 91 | 310 | > 100000 | > 320 |  |  |  |
| CCn1c(=O)c2[nH]c(/C=C/c3ccc4c(c3)OCO4)nc2n(CC)c1=O [Compound 15, (E)-1,3-Diethyl-8-(3,4-methylenedioxystyryl)xanthine] | > 300 | 35 | 25 | 53 | 64 | 70 | 70 | 15 | > 100000 |  |  |  |  |
| CCn1c(=O)c2c(nc(/C=C/c3cccc(OC)c3OC)n2C)n(CC)c1=O [Compound 4, (E)-8-(2,3-Dimethoxystyryl)-1,3-diethyl-7-methylxanthine] | > 300 | 70 | 55 | 57 | 84 | 88 | 90 | 33 |  |  |  |  |  |
| COc1ccc(/C=C/c2nc3c(c(=O)n(C)c(=O)n3C)n2C)c(C)c1C [Compound 22, (E)-8-(4-Methoxy-2,3-dimethylstyryl)caffeine] | > 100 | 1 | 1 | 78 | 85 | 78 | 81 | 3 | > 100000 | > 33,000 | 3 | 20 | 20 |
